In PubChem BioAssay AID1259407 (Chemical Carcinogenesis Research Information System (CCRIS), 2018):
Active and inactive are the calls of the source. The rule behind the calls is not given here.

Tested on: CCRIS mutagenicity, Ames/micronucleus/aberration tests
Assay: CCRIS mutagenicity studies

Measured: mutagenic call

CCN(N=O)c1ccccc1
inactive: Test System: AMES SALMONELLA TYPHIMURIUM, Strain/Indicator: TA1537, Metabolic Activation: HAMSTER, LIVER, S-9, AROCLOR 1254, Method: PREINCUBATION inactive; negative | Test System: AMES SALMONELLA TYPHIMURIUM, Strain/Indicator: TA1537, Metabolic Activation: HAMSTER, LIVER, S-9, AROCLOR 1254, Method: STANDARD PLATE inactive; negative | Test System: AMES SALMONELLA TYPHIMURIUM, Strain/Indicator: TA1537, Metabolic Activation: HAMSTER, LIVER, S-9, Method: PREINCUBATION inactive; negative | Test System: AMES SALMONELLA TYPHIMURIUM, Strain/Indicator: TA1537, Metabolic Activation: HAMSTER, LIVER, S-9, Method: STANDARD PLATE inactive; negative | Test System: AMES SALMONELLA TYPHIMURIUM, Strain/Indicator: TA1537, Metabolic Activation: MOUSE, LIVER, S-9, AROCLOR 1254, Method: PREINCUBATION inactive; negative | Test System: AMES SALMONELLA TYPHIMURIUM, Strain/Indicator: TA1537, Metabolic Activation: MOUSE, LIVER, S-9, AROCLOR 1254, Method: STANDARD PLATE inactive; negative | Test System: AMES SALMONELLA TYPHIMURIUM, Strain/Indicator: TA1537, Metabolic Activation: MOUSE, LIVER, S-9, Method: PREINCUBATION inactive; negative | Test System: AMES SALMONELLA TYPHIMURIUM, Strain/Indicator: TA1537, Metabolic Activation: MOUSE, LIVER, S-9, Method: STANDARD PLATE inactive; negative | Test System: AMES SALMONELLA TYPHIMURIUM, Strain/Indicator: TA1537, Metabolic Activation: NONE, Method: PREINCUBATION inactive; negative | Test System: AMES SALMONELLA TYPHIMURIUM, Strain/Indicator: TA1537, Metabolic Activation: NONE, Method: STANDARD PLATE inactive; negative | Test System: AMES SALMONELLA TYPHIMURIUM, Strain/Indicator: TA1537, Metabolic Activation: RAT, LIVER, S-9, AROCLOR 1254, Method: PREINCUBATION inactive; negative | Test System: AMES SALMONELLA TYPHIMURIUM, Strain/Indicator: TA1537, Metabolic Activation: RAT, LIVER, S-9, AROCLOR 1254, Method: STANDARD PLATE inactive; negative | Test System: AMES SALMONELLA TYPHIMURIUM, Strain/Indicator: TA1537, Metabolic Activation: RAT, LIVER, S-9, Method: PREINCUBATION inactive; negative | Test System: AMES SALMONELLA TYPHIMURIUM, Strain/Indicator: TA1537, Metabolic Activation: RAT, LIVER, S-9, Method: STANDARD PLATE inactive; negative | Test System: AMES SALMONELLA TYPHIMURIUM, Strain/Indicator: TA1538, Metabolic Activation: HAMSTER, LIVER, S-9, AROCLOR 1254, Method: PREINCUBATION inactive; negative | Test System: AMES SALMONELLA TYPHIMURIUM, Strain/Indicator: TA1538, Metabolic Activation: HAMSTER, LIVER, S-9, AROCLOR 1254, Method: STANDARD PLATE inactive; negative | Test System: AMES SALMONELLA TYPHIMURIUM, Strain/Indicator: TA1538, Metabolic Activation: HAMSTER, LIVER, S-9, Method: PREINCUBATION inactive; negative | Test System: AMES SALMONELLA TYPHIMURIUM, Strain/Indicator: TA1538, Metabolic Activation: HAMSTER, LIVER, S-9, Method: STANDARD PLATE inactive; negative | Test System: AMES SALMONELLA TYPHIMURIUM, Strain/Indicator: TA1538, Metabolic Activation: MOUSE, LIVER, S-9, AROCLOR 1254, Method: PREINCUBATION inactive; negative | Test System: AMES SALMONELLA TYPHIMURIUM, Strain/Indicator: TA1538, Metabolic Activation: MOUSE, LIVER, S-9, AROCLOR 1254, Method: STANDARD PLATE inactive; negative | Test System: AMES SALMONELLA TYPHIMURIUM, Strain/Indicator: TA1538, Metabolic Activation: MOUSE, LIVER, S-9, Method: PREINCUBATION inactive; negative | Test System: AMES SALMONELLA TYPHIMURIUM, Strain/Indicator: TA1538, Metabolic Activation: MOUSE, LIVER, S-9, Method: STANDARD PLATE inactive; negative | Test System: AMES SALMONELLA TYPHIMURIUM, Strain/Indicator: TA1538, Metabolic Activation: NONE, Method: PREINCUBATION inactive; negative | Test System: AMES SALMONELLA TYPHIMURIUM, Strain/Indicator: TA1538, Metabolic Activation: NONE, Method: STANDARD PLATE inactive; negative | Test System: AMES SALMONELLA TYPHIMURIUM, Strain/Indicator: TA1538, Metabolic Activation: RAT, LIVER, S-9, AROCLOR 1254, Method: PREINCUBATION inactive; negative | Test System: AMES SALMONELLA TYPHIMURIUM, Strain/Indicator: TA1538, Metabolic Activation: RAT, LIVER, S-9, AROCLOR 1254, Method: STANDARD PLATE inactive; negative | Test System: AMES SALMONELLA TYPHIMURIUM, Strain/Indicator: TA1538, Metabolic Activation: RAT, LIVER, S-9, Method: PREINCUBATION inactive; negative | Test System: AMES SALMONELLA TYPHIMURIUM, Strain/Indicator: TA1538, Metabolic Activation: RAT, LIVER, S-9, Method: STANDARD PLATE inactive; negative | Test System: E. COLI, Strain/Indicator: WP2 UVRA, Metabolic Activation: HAMSTER, LIVER, S-9, AROCLOR 1254, Method: PREINCUBATION inactive; negative | Test System: E. COLI, Strain/Indicator: WP2 UVRA, Metabolic Activation: HAMSTER, LIVER, S-9, AROCLOR 1254, Method: STANDARD PLATE inactive; negative | Test System: E. COLI, Strain/Indicator: WP2 UVRA, Metabolic Activation: HAMSTER, LIVER, S-9, Method: PREINCUBATION inactive; negative | Test System: E. COLI, Strain/Indicator: WP2 UVRA, Metabolic Activation: HAMSTER, LIVER, S-9, Method: STANDARD PLATE inactive; negative | Test System: E. COLI, Strain/Indicator: WP2 UVRA, Metabolic Activation: MOUSE, LIVER, S-9, AROCLOR 1254, Method: PREINCUBATION inactive; negative | Test System: E. COLI, Strain/Indicator: WP2 UVRA, Metabolic Activation: MOUSE, LIVER, S-9, AROCLOR 1254, Method: STANDARD PLATE inactive; negative | Test System: E. COLI, Strain/Indicator: WP2 UVRA, Metabolic Activation: MOUSE, LIVER, S-9, Method: PREINCUBATION inactive; negative | Test System: E. COLI, Strain/Indicator: WP2 UVRA, Metabolic Activation: MOUSE, LIVER, S-9, Method: STANDARD PLATE inactive; negative | Test System: E. COLI, Strain/Indicator: WP2 UVRA, Metabolic Activation: NONE, Method: PREINCUBATION inactive; negative | Test System: E. COLI, Strain/Indicator: WP2 UVRA, Metabolic Activation: NONE, Method: STANDARD PLATE inactive; negative | Test System: E. COLI, Strain/Indicator: WP2 UVRA, Metabolic Activation: RAT, LIVER, S-9, AROCLOR 1254, Method: PREINCUBATION inactive; negative | Test System: E. COLI, Strain/Indicator: WP2 UVRA, Metabolic Activation: RAT, LIVER, S-9, AROCLOR 1254, Method: STANDARD PLATE inactive; negative | Test System: E. COLI, Strain/Indicator: WP2 UVRA, Metabolic Activation: RAT, LIVER, S-9, Method: PREINCUBATION inactive; negative | Test System: E. COLI, Strain/Indicator: WP2 UVRA, Metabolic Activation: RAT, LIVER, S-9, Method: STANDARD PLATE inactive; negative
